According to patent US20210154281A1, “CELL-BASED CANCER VACCINES AND CANCER THERAPIES” (Massachusetts Institute of Technology, priority 2019, published 2021):
Like-named read-outs stand apart in the source and are kept apart here.

How the values were obtained:
Assay type in all cases: cell-based, mouse
[1] = tested on: B16F10 melanoma tumor cell line; assay: Cell death by AnnexinV/DAPI staining 48 hours after drug treatment; settings: for cell death by DAPI and Annexin V staining: at the concentrations used; for cytotoxicity at 0.05 µM / viability at 0.05 µM: 50 nM; for cytotoxicity at 0.25 µM / viability at 0.25 µM: 250 nM
Method: For assessment of cell death, floating and attached cells were harvested after 48 hours of treatment with the indicated chemotherapeutic drugs. Attached cells were detached using 5 mM EDTA in PBS. The recovered cells were centrifuged at 250×g for 5 minutes, washed once in PBS containing 0.9 mM Ca2+ and 0.5 mM Mg2+ and then stained with AnnV-FITC for 15 minutes in Annexin binding buffer at room temperature according to the manufacturer's protocol (Biolegend). Cells were co-stained with DAPI at a final concentration of 1 μg/ml for 2 minutes in Annexin binding buffer, brought to a final volume of 500 ul using PBS containing 0.9 mM Ca2^+ and 0.5 mM Mg2^+ and analyzed by flow cytometry.
To identify how DNA-damaging chemotherapy could be optimally used to enhance anti-tumor immune function, cytotoxicity assays were performed using the B16F10 melanoma tumor cell line expressing ovalbumin (B16-Ova). Cells were treated with clinically used chemotherapeutic agents followed by assaying for cell death by DAPI and Annexin V staining 48 hours later.

[2] = Cell viability (survival) assay with CellTiter-Glo, 48 hours; settings: mouse, 48 hours, normalized to DMSO-treated control cells; for viability at 48 h, 0.05 uM: .05 uM
Method: (§1) For assays of survival, 15,000 cells were plated per well in a 96-well plate in 100 μl media with 5 replicates per condition. Wells along the four edges of the plate were not used. Following cell attachment, the indicated drugs were added in an equal volume of media, and incubated for an additional 48 hours. The media was then removed and replaced with 100 ul of fresh media at room temperature. Following a 30 minute incubation at room temperature, 50 μl of CellTiter-Glo reagent was added, followed by 2 minutes of gentle mixing. The plate was incubated at room temperature for an additional 10 minutes. 100 μl of supernatant was transferred to a 96-well white opaque plate and luminescence was read on a Tecan microplate reader. Values were normalized to those of DMSO-treated control cells.

[3] = tested on: B16F10 melanoma tumor cell line; assay: as above; settings: for growth arrest: at the concentrations used; for Cell viability (%) MEAN: 48 hours, normalized to DMSO-treated control cells
Method: as §1

B16-Ova cells = assay: In vitro cross presentation assay: drug-treated B16-Ova cells, BMDC and OT-1 CD8+ T-cells, IFN-γ+ T-cells by flow cytometry; parameters: reduction of the percentage of IFNg+ T-cells by siRNA knockdown of calreticulin / reduction of T-cell IFN-γ responses / frequency of IFN-γ+ T-cells: concentration or dose not given beside the values
Method: B16-Ova or MC-38 Ova cells were treated with various doses of chemotherapeutic drugs for 24 h followed by extensive washing in IMDM (10% FBS, P/S). Subsequently 1×10^6 treated cells were co-cultured with 2.5×10^5 BMDC per well of a 24-well plate for each condition tested. After 24 hours of co-culture, supernatants were removed from each well and the BMDC washed 2-3 times in T-cell media (RPMI containing 10% FBS, 20 mM HEPES, 1 mM sodium pyruvate, 55 uM b-mercaptoethanol, 2 mM L-glutamine, nonessential amino acids and antibiotics). CD8+OT-I T-cells isolated from spleens of OT-I mice were then co-cultured with the BMDC at 125,000 T-cells per well to achieve an effector to target ratio of 0.5. Where indicated, BMDC and/or T-cells were also exposed to chemotherapy drugs. After a 12-15 h incubation, IFN-g producing T-cells were identified and quantified by intra-cellular cytokine staining and flow cytometry using a BD LSR II or Fortessa flow cytometer. Cells were first gated for CD3 expression, then re-gated for CD8 and IFNg expression.
An experimental system was developed to assess dendritic cell-mediated T-cell priming using the B16-Ova cells, in combination with primary bone-marrow derived dendritic cells (BMDC) and OT-I CD8+ T-cells expressing a TCR transgene that specifically recognizes the Ova-derived peptide […] (SEQ ID NO:1) in the context of H2-Kb (OT-1) (Clarke, et al., Immunol Cell Biol., 78(2):110-7 (2000); Hogquist, et al., Cell, 76(1):17-27 (1994)). […] The treated B16-Ova cells/BMDC co-culture was then incubated with purified CD8+ T-cells obtained from the spleens of OT-1 mice, and the appearance of IFNg+CD8 T-cells was measured 12-15 hours later by intracellular staining and subsequent quantification using flow cytometry.

[4] = Mus musculus, B16-F10, 48 hours, read-out: AnnV+DAPI+ (%) Mean
[5] = Mus musculus, B16-F10, 48 hours, read-out: AnnV+DAPI− (%) Mean
[6] = Mus musculus, B16-F10, 48 hours, read-out: AnnV−DAPI+ (%) Mean
[7] = Mus musculus, B16-F10, 48 hours, read-out: AnnV−DAPI− (%) Mean
[8] = co-treatment of B16-Ova cells with etoposide
[9] = co-treatment of B16-Ova cells with mitoxantrone
[10] = Mus musculus, B16-F10, 48 h, read-out: AnnV+DAPI+ (%) Mean
[11] = Mus musculus, B16-F10, 48 h, read-out: AnnV+DAPI− (%) Mean
[12] = Mus musculus, B16-F10, 48 h, read-out: AnnV−DAPI+ (%) Mean
[13] = Mus musculus, B16-F10, 48 h, read-out: AnnV−DAPI− (%) Mean

## O=c1[nH]cc(F)c(=O)[nH]1 [5-FU, 5-fluorouracil]
[1]; 48 hours
  cell death by DAPI and Annexin V staining: caused varying extents of apoptotic and non-apoptotic cell death
[1]; Mus musculus, B16-F10, 10 uM, 48 hours, read-out: AnnV+DAPI+ (%) Mean
  cytotoxicity at 10 µM: 5.29%
[1]; Mus musculus, B16-F10, 10 uM, 48 hours, read-out: AnnV+DAPI− (%) Mean
  cytotoxicity at 10 µM: 9.5%
[1]; Mus musculus, B16-F10, 10 uM, 48 hours, read-out: AnnV−DAPI+ (%) Mean
  cytotoxicity at 10 µM: 1.23%
[1]; Mus musculus, B16-F10, 10 uM, 48 hours, read-out: AnnV−DAPI− (%) Mean
  viability at 10 µM: 84%
[1]; Mus musculus, B16-F10, 50 uM, 48 hours, read-out: AnnV+DAPI+ (%) Mean
  cytotoxicity at 50 µM: 6.78%
[1]; Mus musculus, B16-F10, 50 uM, 48 hours, read-out: AnnV+DAPI− (%) Mean
  cytotoxicity at 50 µM: 28.1%
[1]; Mus musculus, B16-F10, 50 uM, 48 hours, read-out: AnnV−DAPI+ (%) Mean
  cytotoxicity at 50 µM: 1.33%
[1]; Mus musculus, B16-F10, 50 uM, 48 hours, read-out: AnnV−DAPI− (%) Mean
  viability at 50 µM: 63.9%
[2]; B16F10 melanoma tumor cells, 10 uM
  viability at 48 h, 10 µM: 49%
[2]; B16F10 melanoma tumor cells, 50 uM
  viability at 48 h, 50 µM: 42.8%

## CCc1c2c(nc3ccc(OC(=O)N4CCC(N5CCCCC5)CC4)cc13)-c1cc3c(c(=O)n1C2)COC(=O)[C@]3(O)CC [Iri, irinotecan]
[1]; [4]
  cytotoxicity at 0.05 µM: 3.79%
  cytotoxicity at 0.25 µM: 5.06%
[1]; [5]
  cytotoxicity at 0.05 µM: 0.36%
  cytotoxicity at 0.25 µM: 0.54%
[1]; [6]
  cytotoxicity at 0.05 µM: 1.87%
  cytotoxicity at 0.25 µM: 1.63%
[1]; [7]
  viability at 0.05 µM: 94%
  viability at 0.25 µM: 92.8%
[1]; Mus musculus, B16-F10, 1 uM, 48 hours, read-out: AnnV+DAPI+ (%) Mean
  cytotoxicity at 1 µM: 6.38%
[1]; Mus musculus, B16-F10, 1 uM, 48 hours, read-out: AnnV+DAPI− (%) Mean
  cytotoxicity at 1 µM: 1.74%
[1]; Mus musculus, B16-F10, 1 uM, 48 hours, read-out: AnnV−DAPI+ (%) Mean
  cytotoxicity at 1 µM: 0.89%
[1]; Mus musculus, B16-F10, 1 uM, 48 hours, read-out: AnnV−DAPI− (%) Mean
  viability at 1 µM: 91%
[2]; B16F10 melanoma tumor cells
  viability at 48 h, 0.25 µM: 99.8%
  viability at 48 h, 0.05 uM: 96.8%
[2]; B16F10 melanoma tumor cells, 1 uM
  viability at 48 h, 1 µM: 97.9%
[3]
  growth arrest: caused some degree of growth arrest

## CC(C)(C)c1ccc(S(=O)(=O)/C=C/C#N)cc1 [Bay11-7085]
B16-Ova cells; [8]
  BMDC-mediated T-cell priming: inhibits BMDC-mediated T-cell priming
  reduction of T-cell IFN-γ responses / frequency of IFN-γ+ T-cells: > 90%
B16-Ova cells; [9]
  reduction of T-cell IFN-γ responses / frequency of IFN-γ+ T-cells: > 50%

## Z-VAD
B16-Ova cells; [8]
  reduction of T-cell IFN-γ responses / frequency of IFN-γ+ T-cells: ~12%
B16-Ova cells; [9]
  reduction of T-cell IFN-γ responses / frequency of IFN-γ+ T-cells: no effect

## N.N.[Cl][Pt][Cl] [Cis, cisplatin]
[1]; 10 uM, 48 hours
  AnnV+DAPI+ (%) Mean: 2.76%
  AnnV+DAPI− (%) Mean: 3.68%
  AnnV−DAPI+ (%) Mean: 0.32%
  AnnV−DAPI− (%) Mean: 93.25%
[1]; 50 uM, 48 hours
  AnnV+DAPI+ (%) Mean: 18.75%
  AnnV+DAPI− (%) Mean: 46.80%
  AnnV−DAPI+ (%) Mean: 2.96%
  AnnV−DAPI− (%) Mean: 31.55%
[1]; 48 hours
  cell death by DAPI and Annexin V staining: caused varying extents of apoptotic and non-apoptotic cell death

## O=C1[O][Pt]2([NH][C@@H]3CCCC[C@H]3[NH]2)[O]C1=O [Oxal, oxaliplatin]
[1]; 10 uM, 48 hours
  AnnV+DAPI+ (%) Mean: 1.73%
  AnnV+DAPI− (%) Mean: 2.65%
  AnnV−DAPI+ (%) Mean: 1.11%
  AnnV−DAPI− (%) Mean: 94.50%
[1]; 50 uM, 48 hours
  AnnV+DAPI+ (%) Mean: 4.25%
  AnnV+DAPI− (%) Mean: 4.23%
  AnnV−DAPI+ (%) Mean: 1.09%
  AnnV−DAPI− (%) Mean: 90.45%
[1]; 48 hours
  cell death by DAPI and Annexin V staining: did not induce substantial amounts of cell death
[3]; 10 uM
  Cell viability (%) MEAN: 45.09%
[3]; 50 uM
  Cell viability (%) MEAN: 44.21%
[3]
  growth arrest: caused some degree of growth arrest

## Oc1ccc(-c2nc(-c3ccncc3)c(-c3ccc(F)cc3)[nH]2)cc1 [SB202190]
B16-Ova cells; [8]
  reduction of T-cell IFN-γ responses / frequency of IFN-γ+ T-cells: ~22%
B16-Ova cells; [9]
  reduction of T-cell IFN-γ responses / frequency of IFN-γ+ T-cells: nearly abrogated

## Cc1ccc(-c2ccc3c(ccc4sc5c(c43)NC[C@@H](C)NC5=O)n2)cn1 [PF-3644022]
B16-Ova cells; [8]
  BMDC-mediated T-cell priming: enhances BMDC-mediated T-cell priming

## CN1C(=O)C(Cc2c[nH]c3ccccc23)NC1=S (stereo not shown) [necrostatin-1]
B16-Ova cells; co-treatment with etoposide or mitoxantrone
  ability of drug-treated B16-Ova cells co-cultured with BMDCs to induce IFN-g in T-cells: inhibited the ability of both etoposide and mitoxantrone-treated B16-Ova cells

## O=P1(N(CCCl)CCCl)NCCCO1 (stereo not shown) [CPM, cyclophosphamide]
[1]; 48 hours
  cell death by DAPI and Annexin V staining: did not induce substantial amounts of cell death
[1]; [10]
  cytotoxicity at 40 µM: 7.7%
  cytotoxicity at 200 µM: 11%
[1]; [11]
  cytotoxicity at 40 µM: 1.44%
  cytotoxicity at 200 µM: 1.09%
[1]; [12]
  cytotoxicity at 40 µM: 0.82%
  cytotoxicity at 200 µM: 0.88%
[1]; [13]
  viability at 40 µM: 90%
  viability at 200 µM: 87%
[2]; 40 uM
  viability at 48 h, 40 µM: 98.5%
[2]; 200 uM
  viability at 48 h, 200 µM: 101%

## CC[C@@]1(O)C(=O)OCc2c1cc1n(c2=O)Cc2cc3ccccc3nc2-1 [CPT, camptothecin]
[1]; 48 hours
  cell death by DAPI and Annexin V staining: did not induce substantial amounts of cell death
[1]; [4]
  cytotoxicity at 0.05 µM: 7.03%
  cytotoxicity at 0.25 µM: 4.71%
[1]; [5]
  cytotoxicity at 0.05 µM: 1.26%
  cytotoxicity at 0.25 µM: 4.35%
[1]; [6]
  cytotoxicity at 0.05 µM: 1.35%
  cytotoxicity at 0.25 µM: 0.58%
[1]; [7]
  viability at 0.05 µM: 90.4%
  viability at 0.25 µM: 90.3%
[2]; B16F10 melanoma tumor cells
  viability at 48 h, 0.25 µM: 77.6%
  viability at 48 h, 0.05 uM: 91.1%
